Assay results from patent publication US8716521B2 (priority 2008, dated 2014).
Where a name gives a salt, the structure may show the parent alone. Read-outs that look alike come from different tables or passages of the source.

Key:
[1] = aqueous solution in the narrow pH range of solubility
[2] = Dissolution rate and vinyl sulfone generation during compounding at different temperatures; type: physicochemical; details: for dissolution time: 50 mL batch size
From the text: The following items are some critical issues for the compounding of the drug product. • If the solution pH is higher than target pH, it can be titrated with 1.0 NHCL to the target pH. If the pH is too low, it will not be possible to back titrate with NaOH due to the sensibility of canfosfamide hydrochloride to alkaline environment. • Due to the acidity of the drug substance, the rate of dissolution of drug substance influences the pH of the compounding solution. A quick dissolution could reduce the pH faster and therefore reduce the time of exposure of the drug to high pH. […] The solution was then analyzed by HPLC.
An additional study of two liter batch size was conducted. Canfosfamide hydrochloride was dissolved into three batches of pH 6.5, 0.1 M citrate buffer and monitored at different temperatures; 5° C., 20° C. and 40° C. […] In the second batch at 20° C. (room temperature), the drug was totally dissolved after 20 minutes. […] The third batch consisted of adding drug at room temperature and allowing the temperature to increase to 40° C. over 90 minutes. […] These experiments support controlling the compounding procedure at room temperature until all drug is dissolved and filtered.

[3] = Vinyl sulfone degradation on titration with NaOH
[4] = pH and osmolality of 50 mg/mL solution in citrate buffer
From the text: The solubility of canfosfamide hydrochloride depends on the concentration and initial pH of buffer system.

[5] = not given; remark: listed apart in the source
[6] = Stability in solution at 1 mg/mL, effect of pH (vinyl sulfone generation); type: physicochemical; details: 1 mg/mL in 0.1 M citrate buffer
Description: A stability study was performed by monitoring vinyl sulfone generation. Canfosfamide hydrochloride was dissolved at 1 mg/mL into 0.1 M citrated buffer from pH 4.5 to pH 6.5. The solutions were incubated at 25° C. for 24 hours. Vinyl sulfone generation was monitored.

In the case of N[C@@H](CCC(=O)N[C@@H](CS(=O)(=O)CCOP(=O)(N(CCCl)CCCl)N(CCCl)CCCl)C(=O)N[C@@H](C(=O)O)c1ccccc1)C(=O)O [Canfosfamide], the “time aqueous formulations are stable before decomposition products are observed” value [1] is reported as 6 to 12 h.

With N[C@@H](CCC(=O)N[C@@H](CS(=O)(=O)CCOP(=O)(N(CCCl)CCCl)N(CCCl)CCCl)C(=O)N[C@@H](C(=O)O)c1ccccc1)C(=O)O [canfosfamide hydrochloride] the solubility (physchem; citrate buffer, pH 5.5, aqueous buffer) was 174 mg/mL, the solubility (physchem; water) was roughly 2 mg/mL and the dissolution time ([2]; 5° C.) was 45 min. For the same molecule, the dissolution time ([2]; room temperature) was 25 min, the “vinyl sulfone generated at 5° C. versus room temperature” value ([2]; during dissolution, HPLC) was “not significantly different” and the dissolution observation ([2]; two liter batch, pH 6.5 0.1 M citrate buffer, 5° C., after 80 minutes) was “minor particles were observed”. For the same molecule, the “time to total dissolution” value ([2]; two liter batch, pH 6.5 0.1 M citrate buffer, 20° C. (room temperature)) was 20 min, the vinyl sulfone generated ([2]; two liter batch, temperature increased from room temperature to 40° C. over 90 minutes) was “higher than the two previous batches” and the “content of vinyl sulfone before titration” value ([3]; 50 mg/mL in pH 4.3 citrate buffer) was 0.64%. The “content of vinyl sulfone after titration” value ([3]; 50 mg/mL in pH 4.3 citrate buffer titrated with 0.1 N NaOH to pH 4.5) was 1.3%, the “content of vinyl sulfone after titration” value ([3]; 50 mg/mL in pH 4.3 citrate buffer titrated with 1.0 N NaOH to pH 4.5) was 6.5% and the “amount dissolved by citrate buffer” value (0.1 M citrate buffer at pH 6.5) was “approximately 100 mg/mL”. The “pH at which soluble” value (aqueous) was “above 4.2”, the “pH at which stability is limited” value (aqueous) was greater than 5.0 and the pH of solution ([4]; 50 mg/mL dissolved in 0.1 M citrate buffer at pH 6.5) was “about 4.6”. The osmolality ([4]; 50 mg/mL in 100 mM citrate buffer) was “about 400 mM”, the “% Purity 25° C.” value ([5]; 3 Month, bulk solution 50 mg/mL at pH 4.6, data is ± 2%) was 69% and the “% Purity 25° C.” value ([5]; Day 0, bulk solution 50 mg/mL at pH 4.6, data is ± 2%) was 92%. The “% Purity 25° C.” value ([5]; Day 3, bulk solution 50 mg/mL at pH 4.6, data is ± 2%) was 93%, the “% Purity 25° C.” value ([5]; Day 7, bulk solution 50 mg/mL at pH 4.6, data is ± 2%) was 89% and the “% Purity 25° C.” value ([5]; Day 28, bulk solution 50 mg/mL at pH 4.6, data is ± 2%) was 84%. For the same molecule, the “% Purity 25° C.” value ([5]; Day l, bulk solution 50 mg/mL at pH 4.6, data is ± 2%) was 89%, the “Percent vinyl sulfone at 25° C.” value ([6]; pH 4.5, 6 hrs) was 0.1% and the “Percent vinyl sulfone at 25° C.” value ([6]; pH 4.5, 24 hrs) was 0.4%. The “Percent vinyl sulfone at 25° C.” value ([6]; pH 5.0, 6 hrs) was 0.2%, the “Percent vinyl sulfone at 25° C.” value ([6]; pH 5.0, 24 hrs) was 1.1% and the “Percent vinyl sulfone at 25° C.” value ([6]; pH 5.5, 6 hrs) was 0.6%. The “Percent vinyl sulfone at 25° C.” value ([6]; pH 5.5, 24 hrs) was 2.9%, the “Percent vinyl sulfone at 25° C.” value ([6]; pH 6.0, 6 hrs) was 1.7% and the “Percent vinyl sulfone at 25° C.” value ([6]; pH 6.0, 24 hrs) was 8.2%. For the same molecule, the “Percent vinyl sulfone at 25° C.” value ([6]; pH 6.5, 6 hrs) was 6.6% and the “Percent vinyl sulfone at 25° C.” value ([6]; pH 6.5, 24 hrs) was 24.2%.
